This passage reports inhibition and CC50 results from EP0393530B1, “5,11-dihydro-6H-pyrido[2,3,-b][1,4]benzodiazepin-6-ones and -thiones and their use in the prevention or treatment of AIDS” (BOEHRINGER INGELHEIM PHARMACEUTICALS INC., priority 1989, dated 1990).

In data set [1] the target is T1, HIV-1 reverse transcriptase (Human immunodeficiency virus type 1 group M subtype B, UniProt P03367).
T1 construct: Reverse transcriptase enzyme from the LAV strain of Human Immunodeficiency Virus (HIV-1); made in house; host or cells: E. coli JM109, clone pBRTprt1+ in vector pIBI21 (lac promoter, IPTG induction)
The data set can be described thus: Reverse Transcriptase (RT) Assay. The data set is classed as biochemical. To be noted: RNA-dependent DNA polymerase activity. From the text: Utilizing the Reverse Transcriptase (RT) Assay described below, compounds can be tested for their ability to inhibit the RNA-dependent DNA polymerase activity of HIV RT. Certain specific compounds, described in the Examples which appear below, were so tested.
Among the enzymes for which Human Immunodeficiency Virus (HIV-1) encodes is a reverse transcriptase (1), so-named because it transcribes a DNA copy from an RNA template. This activity can be quantitatively measured in a cell-free enzyme assay which has been previously described (2), and is based upon the observation that reverse transcriptase is able to use a synthetic template [poly r(C) primed with oligo d(G)] to transcribe a radio-labelled, acid-precipitable DNA strand utilizing ³H-dGTP as a substrate.
a) Preparation of the enzyme Reverse transcriptase enzyme from the LAV strain of Human Immunodeficiency Virus (HIV-1) (1) was isolated from the bacterial strain JM109 (3) expressing the DNA clone pBRTprt1+ (2) which is under the control of the lac promotor in the expression vector pIBI21 (4). An overnight culture grown in 2XYT medium (37°C, 225 rpm) (5) supplemented with 100 µg/ml ampicillin for positive selection is inoculated at a 1:40 dilution into M9 medium supplemented with 10µg/ml thiamine, 0.5% casamino acids, and 50 µg/ml ampicillin (5). The culture is incubated (37°C, 225 rpm) until it reaches an OD540 of 0.3-0.4. At that time the repressor inhibitor IPTG (isopropyl b-D-thiogalactopyranoside) is added to 0.5mM and incubated for 2 additional hours. Bacteria are pelleted, resuspended in a 50mM Tris, 0.6mM EDTA, 0.375M NaCl buffer and digested by the addition of lysozyme (1mg/ml) for 30 minutes on ice. The cells are lysed by the addition to 0.2% NP-40 and brought to 1M NaCl. After removal of the insoluble debris by centrifugation, the protein is precipitated by the addition of 3 volumes of saturated aqueous ammonium sulfate. The enzyme is pelleted, resuspended in RT buffer (50mM Tris pH 7.5, 1mM EDTA, 5mM DTT, 0.1% NP-40, 0.1M NaCl, and 50% glycerol) and stored at -70°C for further use. b) Composition of 2X concentrated stock reaction mixture
The 2X concentrated stock reaction mixture is aliquoted and stored at -20°C. The mixture is stable and thawed for use in each assay. This enzyme assay has been adapted to a 96 well microtiter plate system, and has been previously described (6). Tris buffer (50 mM, pH 7.4), vehicle (solvent diluted to match the compound dilution), or compounds in vehicle are dispensed into 96-well miciotiter plates (10µl/well; 3 wells/compound). The HIV RT enzyme is thawed, diluted in 50mM Tris pH 7.4 so that fifteen µl of diluted enzyme contain 0.001 Unit (one unit is that amount of enzyme to transform 1 micromole of substrate per minute at 25°C), and 15µl are dispensed per well. Twenty µl of 0.12-0.5M EDTA are added to the first three wells of the microtiter plate. EDTA chelates the Mg⁺⁺ present and prevents reverse transcription. This group serves as background polymerization which is subtracted from all other groups. Twenty-five µl of the 2X reaction mixture are added to all wells and the assay is allowed to incubate at room temperature for 60 minutes. The assay is terminated by precipitating the DNA in each well with 50µl of trichloracetic acid (TCA) (10% w/v) in sodium pyrophosphate (1% w/v). The microtiter plate is incubated for 15 minutes at 4°C and the precipitate is fixed onto #30 glass fiber paper (Schleicher & Schuell) using a Skatron semi-automatic harvester. The filters are then washed with additional TCA (5%) containing sodium pyrophosphate (1%), rinsed with aqueous ethanol (70%), dried, and transferred to scintillation vials (6). Each vial receives 2 mls of scintillation cocktail and is counted in a Beckman beta counter.
The calculation for percent inhibition is as follows: [formula]

Data set [2] can be described thus: MTT Assay for Cellular Cytotoxicity. The data set is classed as cell-based. To be noted: human, H9 cells, five days, EC₅₀ called the highest non-toxic concentration, read-out: Cytotoxity Assay (EC₅₀). The protocol: In order to roughly assess the cytotoxicity of the compounds provided by the invention, several such compounds were tested in the MTT Cellular Cytotoxicity Assay described below. Compounds having a relatively high EC₅₀ are preferred.
The MTT [3-(4,5-dimethylthiazol-2-yl)-2,5-diphenyl tetrazolium bromide) assay is based on cleavage of tetrazolium bromide by metabolically active cells, resulting in a highly quantitative blue color. This assay has been previously described (1) but his been optimized for the purposes of the testing reported herein.
The H9 cell line (2), an established human lymphoma suspension cell line grown in RPMI 1640 supplemented with 10% fetal bovine serum is used as the target cell line in the assay. Cells (100µl) are plated in microtest plate wells at a concentration of 10⁵ cells per ml in the presence of varying concentrations of inhibitor. The cells are incubated at 37°C in a humidified CO₂ incubator. Five days later, 20µl of MTT (5mg/ml in RPMI 1640, sonicated, 0.2 micron filtered, and stored at 4°C) is added to each well. After 4 hours additional incubation at 37°C, 60µl of Triton-X is added to each well and thoroughly mixed to aid the solubilization of the crystals. Absolute ethanol (5µl) is added to each well and the resulting mixture is incubated for 30 minutes at 60°C and immediately read on a plate reader (Dynatech) at a wavelength of 570nm. […]

In data set [3] the test system is HTLV-IIIB strain of HIV-1. The data set can be described thus: Human T-Cell Culture Assay (syncytia formation in c8166 cells). The data set is classed as cell-based. The settings on record: Human immunodeficiency virus 1, IIIB, 96 h, syncytia four days after virus challenge. The protocol: In order to confirm that compounds which are active in the RT Assay also have the ability to inhibit HIV replication in a living system, compounds according to the invention were also tested in the Human T-Cell Culture Assay described below.
Assay Theory: Formation of syncytia is a feature of in vitro cultures of CD4+ T-cells infected with HIV-1. In this assay, T-cells are treated with a putative replication inhibiting compound and then infected with HIV-1. After incubation the culture is checked for the formation of syncytia. The absence or reduction is the number of syncytia is used as a measure of the test compound's ability to inhibit HIV replication.
Assay Method: The target cells, designated c8166, are a subclone of human lymphoma cells of T-cell origin and are established at an initial density of 5x10⁴ per 100 µl in RPMI 1640 (+ 10% fetal bovine serum) culture medium in 96 well flat bottom plates. A selected amount of test compound, dissolved in DMSO is included. After 24 hours, 50-100 TCID50's (the dose that results in induced effect in 50% of test cultures) of the HTLV-IIIB strain of HIV-1 (2) are innoculated into each culture. Control cultures receive compound or virus only. […] The percent inhibition by the test compound is determined by comparison with control values. […]

SMILES strings stand for the structures.

In turn, `C=C(Cl)CN1C(=O)c2ccccc2N(CC)c2ncccc21` [Example 1, 5-(2-Chloro-2-propenyl)-11-ethyl-5,11-dihydro-6H-pyrido [2,3-b][1,4]benzodiazepin-6-one] had an inhibition at 10 µg/mL in data set [1] of 41%.
The compound `Cc1ccc2c(c1)C(=O)N(C)c1ccc(C)nc1N2C` [Example 2, 2,5,8,11-Tetramethyl-5,11-dihydro-6H-pyrido[2,3-b][1,4]benzodiazepin-6-one] returned an inhibition at 10 µg/mL in data set [1] of 50%.
Compound `CCN1C(=O)c2cccc(C)c2N(CC)c2ncccc21` [Example 3, 5,11-Diethyl-10-methyl-5,11-dihydro-6H-pyrido[2,3-b][1,4]benzodiazepin-6-one] came in with an inhibition at 10 µg/mL in data set [1] of 87%.
`CCN1c2ccc(C)cc2C(=O)N(C)c2cccnc21` [Example 4, 5,8-Dimethy-11-ethyl-5,11-dihydro-6H-pyrido[2,3-b][1,4]benzodiazepin-6-one] displayed an inhibition at 10 µg/mL in data set [1] of 91%. For the same compound, the CC50 at 120 h in data set [2] is 40 µM. Moreover, in data set [3] (@19µM), at 19 µM the inhibition was 100%.
For `Cc1ccc2c(n1)N(C)c1c(C)cccc1C(=O)N2C` [Example 5, 2,5,10,11-Tetramethyl-5,11-dihydro-6H-pyrido[2,3-b][1,4]benzodiazepin-6-one], in data set [1], 10 µg/mL produced 84% inhibition.
Same read-out and setting: in the case of `CC(C)(C)OC(=O)CN1c2ccccc2C(=O)Nc2cccnc21` [Example 6] it was 86%; in that of `CCN1C(=O)c2ccccc2N(C)c2nc(Cl)ccc21` [Example 7, 2-Chloro-5-ethyl-11-methyl-5,11-dihydro-6H-pyrido[2,3-b] [1,4]benzodiazepin-6-one], 43%.
In the case of `Cc1ccc2c(c1)C(=O)N(C)c1cccnc1N2C` [Example 8, 5,8,11-Trimethyl-5,11-dihydro-6H-pyrido[2,3-b][1,4]benzodiazepin-6-one], testing at 10 µg/mL in data set [1] gave an inhibition of 40%.
Consider `CN1c2ccccc2C(=O)Nc2cccnc21` [Example 9a, 11-Methyl-5,11-dihydro-6H-pyrido[2,3-b][1,4]benzodiazepin-6-one], for which, in data set [1], at 10 µg/mL the inhibition was 17%.
On the same count and under the same terms, in the case of `CCN1c2ccccc2C(=O)Nc2cccnc21` [Example 9b, 11-Ethyl-5,11-dihydro-6H-pyrido[2,3-b][1,4]benzodiazepin-6-one] it was 82%; in that of `O=C1Nc2cccnc2Nc2ccccc21` [Example 9c, 5,11-dihydro-6H-pyrido[2,3-b][1,4]benzodiazepin-6-one], 55%; in that of `CCN1C(=O)c2ccccc2N(C)c2ncccc21` [Example 9d, 5-Ethyl-11-methyl-5,11-dihydro-6H-pyrido[2,3-b][1,4]benzodiazepin-6-one], 24%.
Still for that read-out and setting: in the case of `CCCN1C(=O)c2ccccc2N(C)c2ncccc21` [Example 9e, 5-n-Propyl-11-methyl-5,11-dihydro-6H-pyrido[2,3-b][1,4]benzodiazepin-6-one] it was 38%.
`CCN1c2ccccc2C(=O)N(C)c2cccnc21` [Example 9f, 5-Methyl-11-ethyl-5,11-dihydro-6H-pyrido[2,3-b][1,4]benzodiazepin-6-one]: the inhibition at 10 µg/mL in data set [1] stood at 94%.
With `CCN1C(=O)c2ccccc2N(CC)c2ncccc21` [Example 9g, 5,11-Diethyl-5,11-dihydro-6H-pyrido[2,3-b][1,4]benzodiazepin-6-one], the inhibition at 10 µg/mL in data set [1] came to 87%. For the same compound, the CC50 at 120 h in data set [2] is 100 µM. Further, the inhibition at 75 µM in data set [3] (@75µM) came to 100%.
In the case of `C=CCN1C(=O)c2ccccc2N(CC)c2ncccc21` [Example 9h, 5-(2-Propenyl)-11-ethyl-5,11-dihydro-6H-pyrido[2,3-b][1,4]benzodiazepin-6-one], the inhibition at 10 µg/mL in data set [1] came out at 70%.

One may read the inhibition as the percentage by which the read-out fell short of the control. High values mean a strong effect, low ones a weak effect.
